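Assay format: 96-well plates, 48-hour exposure. The concentration for full growth arrest is given as TGI.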
How the values were obtained:
Assay in all cases: DTP human tumour cell line panel, 48 h
SK-MEL-2 melanoma = test system: SK-MEL-2 melanoma
HOP-92 NSCLC = test system: HOP-92 NSCLC
T-47D breast = test system: T-47D breast
PC-3 prostate = test system: PC-3 prostate
CCRF-CEM leukemia = test system: CCRF-CEM leukemia
EKVX NSCLC = test system: EKVX NSCLC
OVCAR-5 ovarian = test system: OVCAR-5 ovarian
UACC-257 melanoma = test system: UACC-257 melanoma
NCI/ADR-RES ovarian = test system: NCI/ADR-RES ovarian
MDA-MB-435 = test system: MDA-MB-435
SF-295 CNS = test system: SF-295 CNS
MCF7 breast = test system: MCF7 breast
HT29 colon = test system: HT29 colon
A498 renal = test system: A498 renal
NCI-H460 lung = test system: NCI-H460 lung
UACC-62 melanoma = test system: UACC-62 melanoma
SF-268 CNS = test system: SF-268 CNS
NCI-H23 lung = test system: NCI-H23 lung
KM12 colon = test system: KM12 colon
BT-549 breast = test system: BT-549 breast
HOP-62 NSCLC = test system: HOP-62 NSCLC
HL-60(TB) leukemia = test system: HL-60(TB) leukemia
IGROV1 ovarian = test system: IGROV1 ovarian
M14 melanoma = test system: M14 melanoma
MDA-N = test system: MDA-N
OVCAR-8 ovarian = test system: OVCAR-8 ovarian
SN12C renal = test system: SN12C renal
SNB-19 CNS = test system: SNB-19 CNS
NCI-H226 lung = test system: NCI-H226 lung
UO-31 renal = test system: UO-31 renal
SK-MEL-28 melanoma = test system: SK-MEL-28 melanoma
HCC-2998 colon = test system: HCC-2998 colon
SNB-75 CNS = test system: SNB-75 CNS
SW-620 colon = test system: SW-620 colon
DU-145 prostate = test system: DU-145 prostate
RPMI-8226 leukemia = test system: RPMI-8226 leukemia
NCI-H522 lung = test system: NCI-H522 lung
OVCAR-3 ovarian = test system: OVCAR-3 ovarian
K-562 leukemia = test system: K-562 leukemia
CAKI-1 renal = test system: CAKI-1 renal
SK-MEL-5 melanoma = test system: SK-MEL-5 melanoma
TK-10 renal = test system: TK-10 renal
MOLT-4 leukemia = test system: MOLT-4 leukemia
SF-539 CNS = test system: SF-539 CNS
A549 NSCLC = test system: A549 NSCLC
OVCAR-4 ovarian = test system: OVCAR-4 ovarian
MDA-MB-231 breast = test system: MDA-MB-231 breast
U251 CNS = test system: U251 CNS
786-0 renal = test system: 786-0 renal
HCT-116 colon = test system: HCT-116 colon
LOX IMVI melanoma = test system: LOX IMVI melanoma
HS 578T breast = test system: HS 578T breast
MALME-3M melanoma = test system: MALME-3M melanoma
SK-OV-3 ovarian = test system: SK-OV-3 ovarian
ACHN renal = test system: ACHN renal
RXF 393 renal = test system: RXF 393 renal
HCT-15 colon = test system: HCT-15 colon
COLO 205 colon = test system: COLO 205 colon

With `Nc1ncnc2c1ccn2COC(CO)CO` the TGI (SK-MEL-2 melanoma) was greater than 100 µM, the TGI (HOP-92 NSCLC) was greater than 100 µM and the TGI (T-47D breast) was greater than 100 µM. The TGI (PC-3 prostate) was greater than 100 µM, the TGI (CCRF-CEM leukemia) was greater than 100 µM and the TGI (EKVX NSCLC) was greater than 100 µM. It also gave a TGI (OVCAR-5 ovarian) greater than 100 µM, a TGI (UACC-257 melanoma) greater than 100 µM and a TGI (NCI/ADR-RES ovarian) greater than 100 µM. For the same compound, the TGI (MDA-MB-435) was greater than 100 µM, the TGI (SF-295 CNS) was greater than 100 µM and the TGI (MCF7 breast) was greater than 100 µM. It also gave a TGI (HT29 colon) greater than 100 µM, a TGI (A498 renal) greater than 100 µM and a TGI (NCI-H460 lung) greater than 100 µM. The TGI (UACC-62 melanoma) was greater than 100 µM, the TGI (SF-268 CNS) was greater than 100 µM and the TGI (NCI-H23 lung) was greater than 100 µM. For the same compound, the TGI (KM12 colon) was greater than 100 µM, the TGI (BT-549 breast) was greater than 100 µM and the TGI (HOP-62 NSCLC) was greater than 100 µM. For the same compound, the TGI (HL-60(TB) leukemia) was greater than 100 µM, the TGI (IGROV1 ovarian) was greater than 100 µM and the TGI (M14 melanoma) was greater than 100 µM. The TGI (MDA-N) was greater than 100 µM, the TGI (OVCAR-8 ovarian) was greater than 100 µM and the TGI (SN12C renal) was greater than 100 µM. For the same compound, the TGI (SNB-19 CNS) was greater than 100 µM, the TGI (NCI-H226 lung) was greater than 100 µM and the TGI (UO-31 renal) was greater than 100 µM. For the same compound, the TGI (SK-MEL-28 melanoma) was greater than 100 µM, the TGI (HCC-2998 colon) was greater than 100 µM and the TGI (SNB-75 CNS) was greater than 100 µM. For the same compound, the TGI (SW-620 colon) was greater than 100 µM, the TGI (DU-145 prostate) was greater than 100 µM and the TGI (RPMI-8226 leukemia) was greater than 100 µM. It also gave a TGI (NCI-H522 lung) greater than 100 µM, a TGI (OVCAR-3 ovarian) greater than 100 µM and a TGI (K-562 leukemia) greater than 100 µM. It also gave a TGI (CAKI-1 renal) greater than 100 µM, a TGI (SK-MEL-5 melanoma) greater than 100 µM and a TGI (TK-10 renal) greater than 100 µM. For the same compound, the TGI (MOLT-4 leukemia) was greater than 100 µM, the TGI (SF-539 CNS) was greater than 100 µM and the TGI (A549 NSCLC) was greater than 100 µM. It also gave a TGI (OVCAR-4 ovarian) greater than 100 µM, a TGI (MDA-MB-231 breast) greater than 100 µM and a TGI (U251 CNS) greater than 100 µM. It also gave a TGI (786-0 renal) greater than 100 µM, a TGI (HCT-116 colon) greater than 100 µM and a TGI (LOX IMVI melanoma) greater than 100 µM. For the same compound, the TGI (HS 578T breast) was greater than 100 µM, the TGI (MALME-3M melanoma) was greater than 100 µM and the TGI (SK-OV-3 ovarian) was greater than 100 µM. For the same compound, the TGI (ACHN renal) was greater than 100 µM, the TGI (RXF 393 renal) was greater than 100 µM and the TGI (HCT-15 colon) was greater than 100 µM.
With `CN(C)c1ccc(/C=C(\NC(=O)c2ccccc2)C(=O)Nc2ccccc2C(=O)NCc2ccccc2)cc1` the TGI (SK-MEL-2 melanoma) was greater than 100 µM, the TGI (HOP-92 NSCLC) was greater than 100 µM and the TGI (T-47D breast) was greater than 100 µM. It also gave a TGI (PC-3 prostate) greater than 100 µM, a TGI (CCRF-CEM leukemia) greater than 100 µM and a TGI (EKVX NSCLC) greater than 100 µM. The TGI (OVCAR-5 ovarian) was greater than 100 µM, the TGI (UACC-257 melanoma) was greater than 100 µM and the TGI (NCI/ADR-RES ovarian) was greater than 100 µM. The TGI (MDA-MB-435) was greater than 100 µM, the TGI (SF-295 CNS) was greater than 100 µM and the TGI (MCF7 breast) was greater than 100 µM. It also gave a TGI (HT29 colon) greater than 100 µM, a TGI (A498 renal) greater than 100 µM and a TGI (NCI-H460 lung) greater than 100 µM. It also gave a TGI (UACC-62 melanoma) greater than 100 µM, a TGI (SF-268 CNS) greater than 100 µM and a TGI (NCI-H23 lung) greater than 100 µM. It also gave a TGI (KM12 colon) greater than 100 µM, a TGI (BT-549 breast) greater than 100 µM and a TGI (HOP-62 NSCLC) greater than 100 µM. The TGI (HL-60(TB) leukemia) was greater than 100 µM, the TGI (IGROV1 ovarian) was greater than 100 µM and the TGI (M14 melanoma) was greater than 100 µM. For the same compound, the TGI (MDA-N) was greater than 100 µM, the TGI (OVCAR-8 ovarian) was greater than 100 µM and the TGI (SN12C renal) was greater than 100 µM. The TGI (SNB-19 CNS) was greater than 100 µM, the TGI (NCI-H226 lung) was greater than 100 µM and the TGI (UO-31 renal) was greater than 100 µM. For the same compound, the TGI (SK-MEL-28 melanoma) was greater than 100 µM, the TGI (HCC-2998 colon) was greater than 100 µM and the TGI (SNB-75 CNS) was greater than 100 µM. For the same compound, the TGI (SW-620 colon) was greater than 100 µM, the TGI (DU-145 prostate) was greater than 100 µM and the TGI (RPMI-8226 leukemia) was greater than 100 µM. The TGI (NCI-H522 lung) was 93.3 µM, the TGI (OVCAR-3 ovarian) was greater than 100 µM and the TGI (K-562 leukemia) was greater than 100 µM. The TGI (CAKI-1 renal) was greater than 100 µM, the TGI (SK-MEL-5 melanoma) was greater than 100 µM and the TGI (TK-10 renal) was greater than 100 µM. The TGI (MOLT-4 leukemia) was greater than 100 µM, the TGI (SF-539 CNS) was greater than 100 µM and the TGI (A549 NSCLC) was greater than 100 µM. The TGI (OVCAR-4 ovarian) was greater than 100 µM, the TGI (MDA-MB-231 breast) was greater than 100 µM and the TGI (COLO 205 colon) was greater than 100 µM. The TGI (U251 CNS) was greater than 100 µM, the TGI (786-0 renal) was greater than 100 µM and the TGI (HCT-116 colon) was greater than 100 µM. It also gave a TGI (LOX IMVI melanoma) greater than 100 µM, a TGI (HS 578T breast) greater than 100 µM and a TGI (MALME-3M melanoma) greater than 100 µM. The TGI (SK-OV-3 ovarian) was greater than 100 µM, the TGI (ACHN renal) was greater than 100 µM and the TGI (RXF 393 renal) was greater than 100 µM. It also gave a TGI (HCT-15 colon) greater than 100 µM.
For `O=C(O)C(F)(F)C(F)(F)C(F)(F)C(F)(F)C(F)(F)C(F)(F)C(F)(F)C(F)(F)F`, the TGI (HOP-92 NSCLC) was 58.7 µM, the TGI (T-47D breast) was greater than 100 µM and the TGI (PC-3 prostate) was greater than 100 µM. It also gave a TGI (CCRF-CEM leukemia) greater than 100 µM, a TGI (EKVX NSCLC) greater than 100 µM and a TGI (OVCAR-5 ovarian) greater than 100 µM. The TGI (UACC-257 melanoma) was greater than 100 µM, the TGI (NCI/ADR-RES ovarian) was greater than 100 µM and the TGI (MDA-MB-435) was greater than 100 µM. It also gave a TGI (SF-295 CNS) greater than 100 µM, a TGI (MCF7 breast) greater than 100 µM and a TGI (HT29 colon) greater than 100 µM. The TGI (A498 renal) was greater than 100 µM, the TGI (NCI-H460 lung) was greater than 100 µM and the TGI (UACC-62 melanoma) was greater than 100 µM. The TGI (SF-268 CNS) was greater than 100 µM, the TGI (NCI-H23 lung) was greater than 100 µM and the TGI (KM12 colon) was greater than 100 µM. It also gave a TGI (BT-549 breast) greater than 100 µM, a TGI (HOP-62 NSCLC) greater than 100 µM and a TGI (HL-60(TB) leukemia) of 62.4 µM. The TGI (IGROV1 ovarian) was greater than 100 µM, the TGI (M14 melanoma) was greater than 100 µM and the TGI (MDA-N) was greater than 100 µM. For the same compound, the TGI (OVCAR-8 ovarian) was greater than 100 µM, the TGI (SN12C renal) was greater than 100 µM and the TGI (SNB-19 CNS) was greater than 100 µM. It also gave a TGI (NCI-H226 lung) greater than 100 µM, a TGI (UO-31 renal) greater than 100 µM and a TGI (SK-MEL-28 melanoma) greater than 100 µM. It also gave a TGI (HCC-2998 colon) greater than 100 µM, a TGI (SNB-75 CNS) greater than 100 µM and a TGI (SW-620 colon) greater than 100 µM. The TGI (DU-145 prostate) was greater than 100 µM, the TGI (NCI-H522 lung) was greater than 100 µM and the TGI (OVCAR-3 ovarian) was greater than 100 µM. It also gave a TGI (K-562 leukemia) of 92.4 µM, a TGI (CAKI-1 renal) greater than 100 µM and a TGI (SK-MEL-5 melanoma) greater than 100 µM. It also gave a TGI (TK-10 renal) greater than 100 µM, a TGI (MOLT-4 leukemia) greater than 100 µM and a TGI (SF-539 CNS) greater than 100 µM. It also gave a TGI (A549 NSCLC) greater than 100 µM, a TGI (OVCAR-4 ovarian) greater than 100 µM and a TGI (MDA-MB-231 breast) greater than 100 µM. The TGI (COLO 205 colon) was greater than 100 µM, the TGI (U251 CNS) was greater than 100 µM and the TGI (786-0 renal) was greater than 100 µM. The TGI (HCT-116 colon) was greater than 100 µM, the TGI (LOX IMVI melanoma) was greater than 100 µM and the TGI (HS 578T breast) was greater than 100 µM. For the same compound, the TGI (MALME-3M melanoma) was greater than 100 µM, the TGI (SK-OV-3 ovarian) was 86.6 µM and the TGI (ACHN renal) was greater than 100 µM. The TGI (RXF 393 renal) was greater than 100 µM and the TGI (HCT-15 colon) was greater than 100 µM.
